Key:
[1] = UV protection factor UPF of cotton fabric after laundry aftertreatment in final rinse bath; settings: in Lenor care conditioner 1000 ppm, dried white cotton fabric, AS/NZS 4399:1996
Protocol: The UV protection factor UPF of textiles is determined in accordance with the Australian/New Zealand standard AS/NZS 4399:1996 using an in vitro method. It measures the UV transmission of the textile object. The spectral transmission can be used to determine the protection factor directly using the following equation: [formula] where • Sλ=spectral irradiation of the sun in the UV region at the wavelength λ • Eλ=spectral erythema action of the UV radiation at the wavelength λ • Tλ=spectral transmission of the textile object at the wavelength λ.
White woven cotton fabric having a basis weight of 100 g/mm^2 [sic] and a UV protection factor UPF of 4.50 was washed using a water hardness of 3 mmol/l. The laundering process was a main wash cycle at 40° C. with a commercially available laundry detergent (Ariel® Color) and a subsequent conditioning rinse. The conditioner used was a commercially available formulation (Lenor® care) in a dosage of 1000 ppm, based on the liquor. […] After the conditioning rinse cycle, the fabric was removed and its UV protection factor UPF was determined in the dried state.

[2] = Photostability of dyed cotton fabric after conditioning rinse (SUNTEST exposure, K/S values); settings: 200 ppm based on the liquor; 14 hours SUNTEST exposure under outdoor conditions; K/S at maximum of K/S spectra; higher = higher photostability
Protocol: Woven cotton fabric dyed with Reactive Black 5 to ⅓ standard depth of shade was treated in the conditioning rinse cycle with a commercially available formulation (Lenor® care, 1000 ppm based on the liquor) in the presence of an inventive UV absorber mixture M1, M2, M3, M4, M5, M6 or M7 (each at 200 ppm based on the liquor) in a liquor ratio of 12.5:1. After the conditioning rinse cycle, the dyed fabric was removed and tested for photostability in the dried state.
The samples were exposed in a SUNTEST® tabletop accelerated lighting unit (from Heraeus, Hanau) for 14 hours under outdoor conditions. A spectrophotometer incl. an integration sphere (“Lambda 900” from Perkin Elmer) was used to measure the reflectance spectra of dyeings before and after exposure. These reflectance spectra were converted in line with the Kubelka-Munk theory into K/S spectra (K=absorption coefficient, S=scattering coefficient). The photostabilities are evaluated with reference to the K/S values after 14 hour exposure relative to the K/S values prior to exposure (K/S in each case at the maximum of the K/S spectra). The higher the value in % reported in Table 2, the higher the photostability.

CCCCC(CC)COC(=O)C(C#N)=C(c1ccccc1)c1ccccc1 (stereo not shown) [Mixture A1, 2-ethylhexyl 2-cyano-3,3-diphenylacrylate]
UPF with 50 ppm ([1]; 50 ppm UV absorber based on the liquor): 8.6
UPF with 100 ppm ([1]; 100 ppm UV absorber based on the liquor): 13.5
UPF with 200 ppm ([1]; 200 ppm UV absorber based on the liquor): 21.1
K/S (14 h)/K/S (0 h) × 100% [2]: 67.7%
